Our source for the Kd values is PMC12475007 (2025).

Common to all, as to experiment: fluorescence bead binding assay
Holding throughout (conditions): binding buffer, room temperature, 1 h; immobilised compound (on beads)

For test [1], the system named is P5 (DNA, aptamer) ACATGTGTAGGCGGTTGGATGCATTATGAGATGGGACATG
Test [2] concerns P1 (DNA, aptamer) TGCGGAGCGAGGCCCTAGGCGTGGTGGCATTGATTTGTAT
The subject of test [3] is P2 (DNA, aptamer) AGACGTGATGAAGTTCAATCAGGATGCAATGTATTAATGG
The subject of test [4] is P3 (DNA, aptamer) CCAAGCATCGTCACATCACATTATCACACATTGTCGTCCGT
Test [5] relates to P4 (DNA, aptamer) TGTGCATTCGTGTGAATTAACTCGTCCACCAGAGCCCGTG
For test [6], the system named is L1 (DNA, aptamer) CAGTCTGCGCCGATTTCTCGCGGATTGCGACGAGGATACG
For test [7], the system named is L2 (DNA, aptamer) CCCATCACCACATTGTCACATCACTCGTCACATACAGCCCG
The test system of test [8] is L4 (DNA, aptamer) TAAGCCCGGCTGAGATAACGGTTGATCCGAAGCTGGTTTT
Test [9] concerns L3 (DNA, aptamer) CACACATACGGGAGAGGCCCCATAAACTCATGCACGTCCTG

Regarding `CC(=O)O[C@H]1C(=O)[C@@]2(C)[C@H]([C@H](OC(=O)c3ccccc3)[C@]3(O)C[C@H](OC(=O)[C@H](O)[C@@H](NC(=O)c4ccccc4)c4ccccc4)C(C)=C1C3(C)C)[C@]1(OC(C)=O)CO[C@@H]1C[C@@H]2O`, the dissociation constant (Kd) (in general, a measure of binding affinity in units of concentration) turned out to be 54.07 nM in [1]; 139.2 nM in [2]; 484.2 nM in [3]; 38.02 nM in [4]; 208.1 nM in test [5].

Regarding `Nc1nc(=O)c2c([nH]1)NC[C@@H](CNc1ccc(C(=O)N[C@@H](CCC(=O)O)C(=O)O)cc1)N2C=O`, the Kd in test [6] is 125.7 nM; in test [7], 284.2 nM; in test [8], 285.7 nM; in test [9], 225.7 nM.
